Data from publication PMC12405493, “Selective ubiquitination of drug-like small molecules by the ubiquitin ligase HUWE1” (Nature Communications, 2025).

What was measured:
HUWE1^HECT = molecular target: T1, HUWE1^HECT (Homo sapiens, UniProt Q7Z6Z7); test: Isothermal titration calorimetry (ITC) with HUWE1^HECT; assay type: binding; conditions: 25 °C
T1 construct: the isolated HECT domain of HUWE1 (HUWE1^HECT); made in house
T1 sequence (Q7Z6Z7 4038-4374 limits assumed): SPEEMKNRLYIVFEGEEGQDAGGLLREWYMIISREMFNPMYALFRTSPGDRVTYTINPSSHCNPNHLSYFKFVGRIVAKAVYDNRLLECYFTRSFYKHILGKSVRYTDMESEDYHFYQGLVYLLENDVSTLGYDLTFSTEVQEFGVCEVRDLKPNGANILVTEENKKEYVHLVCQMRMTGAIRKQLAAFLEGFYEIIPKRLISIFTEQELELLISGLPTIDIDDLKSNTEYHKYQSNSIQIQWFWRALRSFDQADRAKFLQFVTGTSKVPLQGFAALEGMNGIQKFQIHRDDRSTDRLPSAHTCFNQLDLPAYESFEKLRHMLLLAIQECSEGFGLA
Method: ITC was performed with an ITC200 calorimeter (MicroCal) at 25 °C. The proteins were dialyzed into 20 mM HEPES (pH 7.5), 150 mM NaCl, and 1 mM β-mercaptoethanol (β-ME) overnight. 600 μM HUWE1^HECT or HUWE1^HECT-Ub were applied to the cell and a 10-fold molar excess of BI8626 to the syringe (and vice versa). The reference cell was filled with buffer. Titration experiments included 1 injection of 1.5 μL, followed by 15 injections of 2.4 μL in 3-s intervals, with 150-s spacings between individual injections. The reference power was set to 12 μcal s^−1 and the stirring speed to 270 rpm. To control for instrument functionality, 5 mM CaCl2 were titrated into 0.4 mM EDTA in 10 mM MES (pH 5.6). Data were plotted with OriginPro v.2020b (OriginLab).

HEK293T cells [1] = test: Quantitative total proteomics; assay type: cell-based, human; conditions: 15 μM, 24 h vs DMSO
Method: (§1) For total proteomics and Ub remnant profiling (diGly proteomics), HEK293T cells were treated with 15 μM BI8626 (in DMSO) or an equivalent volume of DMSO for 24 h, washed with ice-cold 1 x DPBS, and lysed in 9 M urea, 50 mM Tris (pH 8.0) and 150 mM NaCl, supplemented with protease inhibitor (Roche) and 50 µM PR-619, and processed essentially as described. Briefly, the cells were lysed by sonication, non-solubilized material removed by centrifugation, and the protein concentration was determined with a Pierce BCA Protein Assay Kit. 5 mg was used for further MS processing and four biological replicates per condition.
(§2) After reduction with 5 mM DTT and alkylation with 10 mM chloroacetamide, followed by quenching with 5 mM DTT, lysates were digested with 5 ng/μl LysC protease (Wako) at RT for 1 h. Subsequent digestion of peptides with trypsin (Promega) at a 1: 200 enzyme: peptide ratio was performed. Desalted and lyophilized peptides were resuspended in 1.5 ml IAP buffer (50 mM MOPS (pH 7.2), 10 mM Na2HPO4, 50 mM NaCl) and centrifuged to remove insoluble material. […]
(§3) Data collection was controlled by Tune v.4.0.4084.22 (Thermo Scientific) and Xcalibur v.2.4 (Thermo Fisher Scientific). Raw data files from quadruplicate samples were analyzed using MaxQuant v.1.6.0.1 (Max Planck Institute of Biochemistry)[56],[57]. […]

HEK293T cells [2] = test: Ub remnant profiling (diGly proteomics); assay type: cell-based, human; conditions: 15 μM, 24 h vs DMSO
Method: as §1, §2, §3

NCc1cccc(CNc2ncnc3c(N4CCN(Cc5ccccc5)CC4)ncnc23)c1 [BI8626]
Interaction with HUWE1^HECT by ITC (HUWE1^HECT): No binding was detected | Total proteome changes (HEK293T cells [1]): widespread compound-induced changes | Protein ubiquitination changes (diGly proteomics) (HEK293T cells [2]): predominantly reductions in protein ubiquitination
